From patent US12325696B2, “Indazole derivative, preparation method therefor, and pharmaceutical application thereof” (JIANGSU HENGRUI MEDICINE CO., LTD., priority 2019, dated 2025) come the findings set out here.

Test [1] concerns estrogen receptor reporter gene. In words: Inhibition of estrogen receptor reporter gene activity (ERE-luc luciferase) in MCF7/ERE-luc cells. Format: cell-based. To be noted: Homo sapiens, 0.1 nM β-estradiol, 20 hours, read-out: IC50 of inhibitory activity on the activity of the estrogen receptor reporter gene. Summed up:
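MCF7 cells stably carrying ERE-driven luciferase, in charcoal-stripped serum medium, were stimulated with 0.1 nM β-estradiol plus compound (nine 10-fold dilutions from 10 μM) for 20 h at 37° C. ONE-Glo luminescence was read, and IC50 was fitted from signal versus log concentration.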
Background: A reporter such as luciferase makes a cellular process visible.

A further test has as its system MCF7 ERαY537S. As to the kind of experiment: Inhibition of proliferation of MCF7 cell expressing ERα Y537S mutant. Format: cell-based. To be noted: Homo sapiens, 144 hours; for Emax: read-out: Maximum inhibition. The text has this:
(§1) The mutants ERα Y537S and ERα D538G of human estrogen receptor α (ERαs) protein were obtained by site-directed mutagenesis using the cDNA of wild-type ESR1 gene (Accession No. NM000125) as a template according to double-primer PCR. The primer sequences used for mutagenesis are as follows (the nucleotides underlined are the sites of mutagenesis):
(§2) The cDNA of mutant ESR1 was cloned into the target lentiviral vector pCDH-CMV-MCS-EF1-Puro (SBI, CD510B-1). The lentiviral plasmid with the mutant ESR1 gene sequence and the lentiviral packaging plasmids pVSV-G and pCMV-dR8.91 (SBI, LV500A-1) were transfected into HEK-293T cells (ATCC, CRL-3216) by Lipofectamine 3000 Transfection Reagent (ThermoFisher Scientific, Cat #L3000075). 48 hours after the transfection, the supernatant of the virus-containing DMEM high-glycemic medium (GE Healthcare, SH30243.01) containing 10% FBS was filtered, and ultracentrifuged to obtain the virus pellet. The virus pellet was resuspended in an appropriate amount of MEM medium (GE Healthcare, SH30024.01) containing 10% FBS, non-essential amino acids (SIGMA, M7145-100ML) and sodium pyruvate (SIGMA, S8636-100ML), and the resulting suspension was added to MCF7 cells (ATCC, HTB-22). Polybrene (SIGMA, H9268-5G) at a final concentration of 8 µg/ml was added, and the cells were incubated overnight. Two days after the transfection, […] puromycin (invitrogen, A11138-03) was added to the cell culture medium for resistance screening. After about two weeks, the MCF7 cell line capable of stably expressing ERαY537S and ERα D538G mutants was obtained.
(§3) MCF7 cells expressing ERα mutant were cultured in MEM (GE Healthcare, SH30024.01) complete medium containing 10% fetal bovine serum. On the first day of the experiment, the cells were seeded in a 96-well plate with the complete medium at a density of 3,000 cells/well (100 μl of cell suspension per well), and the plate was incubated in a cell incubator at 37° C. and 5% CO2 overnight. On the second day, the medium in each well was replaced with 135 μl of MEM incomplete medium containing 2% fetal bovine serum. 15 μl of test compound solution of different concentrations formulated with the incomplete medium was added to each well, wherein the final concentrations of the compound were nine concentration points obtained by a 4-fold gradient dilution starting from 100 nM. A blank control containing 0.500 DMSO was set. The plate was incubated in a cell incubator at 37° C. and […] for 144 hours. On the eighth day, the 96-well plate was taken out, and 150 of CellTiter-Glo® Luminescent Cell Viability Assay (Promega, G7573) was added to each well. The plate was left to stand at room temperature for 10 minutes, and the luminescence signal values were measured using a multi-label microplate reader (PerkinElmer, VICTOR 3). The IC50 values of the inhibitory activity of the compounds were calculated based on the concentrations and luminescence signal values of the compounds using Graphpad Prism software.

The target of test [2] is estrogen receptor ERα Y537S mutant-type (Homo sapiens (Human), UniProt P03372, Y537S). In words: Covalent modification of ERα Y537S mutant-type LBD by high-resolution mass spectrometry. Format: binding. Conditions: after 24 hours; 2 μM protein, 10 μM compound, 4° C. How it is done: (§4) The ligand binding domain (LBD, aa296-554) of estrogen receptor ERα wild-type and ERα Y537S mutant-type was expressed in E. coli and purified. 2 μM ERα wild-type or ERα Y537S mutant-type protein and 10 μM compound were added to a buffer solution containing 50 mM Tris-HCl, pH7.5, 150 mM NaCl, 1 mM TCEP and 5% glycerol and mixed well. The solution was incubated at 4° C. for 24 hours, followed by high-resolution mass spectrometry (Agilent Technologies, Agilent Q-tof 6530) assay. Alternatively, 1 μM ERα wild-type or ERα Y537S mutant-type protein and 3 μM compound were added to a buffer solution containing 50 mM Tris-HCl, pH7.5, 150 mM NaCl, 1 mM TCEP and 5% glycerol and mixed well. The solution was incubated at 37° C. for 15 minutes, followed by high-resolution mass spectrometry assay. In the mass spectrometry assay results, the peak whose molecular weight is the sum of the molecular weight of the protein and compound is the product of covalent modification. The percentage of covalent modification is obtained by calculating the ratio of […] to total protein.

The subject of another test is MCF7 D538G. In words: Inhibition of proliferation of MCF7 cell expressing ERα D538G mutant. Format: cell-based. Conditions: Homo sapiens, 144 hours; for Emax: read-out: Maximum inhibition.
Text: as §1, §2, §3

Test [3] addresses estrogen receptor ERα wild-type (Homo sapiens (Human), UniProt P03372). As to the kind of experiment: Covalent modification of ERα wild-type LBD by high-resolution mass spectrometry. In kind it is binding. To be noted: after 24 hours; 2 μM protein, 10 μM compound, 4° C. How it is done:
as §4

In a further test the test system is MCF7 cell. In words: Inhibition of proliferation of MCF7 cell (CellTiter-Glo, 144 hours). Format: cell-based. To be noted: Homo sapiens; for IC50: MCF7, CellTiter-Glo, read-out: IC50 of the inhibitory effect on the proliferation of MCF7 cell; for Emax: MCF7 cell proliferation, read-out: Maximum inhibition. Summed up: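 Seeded overnight, MCF7 cells were treated in MEM with 2% FBS with nine 4-fold dilutions from 100 nM (0.5% DMSO blank). Incubation 144 h at 37° C, 5% CO2. CellTiter-Glo luminescence read; IC50 from signal versus log concentration.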
(In ATP-based viability assays light output follows the ATP content of the culture.)

The structures appear in SMILES notation.

Chain of estrogen receptor ERα wild-type (P03372 296-554): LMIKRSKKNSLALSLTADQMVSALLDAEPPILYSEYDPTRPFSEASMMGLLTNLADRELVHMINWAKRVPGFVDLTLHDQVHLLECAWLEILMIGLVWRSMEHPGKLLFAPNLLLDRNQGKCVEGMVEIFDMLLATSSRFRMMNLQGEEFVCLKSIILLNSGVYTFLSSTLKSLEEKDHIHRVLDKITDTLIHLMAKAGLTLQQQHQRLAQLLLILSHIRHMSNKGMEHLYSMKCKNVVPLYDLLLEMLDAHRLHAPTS
Chain of estrogen receptor ERα Y537S mutant-type (P03372 296-554 Y537S): as the sequence (P03372 296-554) above, with Y242S counted along it

Regarding `O=C(/C=C/CNC1(COc2ccc(/C(=C(/CC(F)(F)F)c3ccccc3)c3ccc4[nH]nc(F)c4c3)cn2)CC1)N1CCCC1` [Example 2, (E)-1-(Pyrrolidin-1-yl)-4-((1-(((5-((Z)-4,4,4-trifluoro-1-(3-fluoro-1H-indazol-5-yl)-2-phenylbut-1-en-1-yl)pyridin-2-yl)oxy)methyl)cyclopropyl)amino)but-2-en-1-one], the IC50 in test [1] came out at 3 nM; in the test on MCF7 ERαY537S, 3 nM; in the test on MCF7 D538G it was 2 nM; with MCF7 cell it was 0.6 nM. The Emax in the test on MCF7 ERαY537S is 107%; in the test with MCF7 D538G it was 104%; with MCF7 cell, 112%. Further, the “Covalent modification effect on the estrogen receptor ERα Y537S mutant-type” value in test [2] was 90%. Moreover, the “Covalent modification effect on the estrogen receptor ERα wild-type” value in test [3] was found to be 87%.
Regarding `CN(C)C(=O)/C=C/CNC1(COc2ccc(/C(=C(/CC(F)(F)F)c3ccccc3)c3ccc4[nH]nc(F)c4c3)cn2)CCCCC1` [Example 8, (E)-N,N-Dimethyl-4-((1-(((5-((Z)-4,4,4-trifluoro-1-(3-fluoro-1H-indazol-5-yl)-2-phenylbut-1-en-1-yl)pyridin-2-yl)oxy)methyl)cyclohexyl)amino)but-2-enamide], the IC50 was determined as 3 nM in test [1], 2 nM in the test on MCF7 ERαY537S, 1 nM in the test on MCF7 D538G and 0.1 nM in the test on MCF7 cell. Moreover, the Emax was determined as 107% with MCF7 ERαY537S, 103% in the test on MCF7 D538G and 113% with MCF7 cell. Also, the “Covalent modification effect on the estrogen receptor ERα Y537S mutant-type” value in test [2] worked out at 97%. Moreover, in test [3], the “Covalent modification effect on the estrogen receptor ERα wild-type” value is given as 96%.
Regarding `O=C(/C=C/CN1CCC[C@@H](Oc2ccc(/C(=C(/CC(F)(F)F)c3ccccc3)c3ccc4[nH]nc(F)c4c3)cn2)C1)N1CCOCC1` [Example 12, (E)-1-Morpholino-4-((R)-3-((5-((Z)-4,4,4-trifluoro-1-(3-fluoro-1H-indazol-5-yl)-2-phenylbut-1-en-1-yl)pyridin-2-yl)oxy)piperidin-1-yl)but-2-en-1-one], the IC50 is 2 nM in test [1], 2 nM in the test with MCF7 ERαY537S, 1 nM with MCF7 D538G and 0.4 nM in the test with MCF7 cell. Moreover, the Emax with MCF7 ERαY537S is 104%; in the test on MCF7 D538G, 96%; with MCF7 cell it was 108%. Moreover, in test [2], the “Covalent modification effect on the estrogen receptor ERα Y537S mutant-type” value is listed as 83%. The “Covalent modification effect on the estrogen receptor ERα wild-type” value in test [3] is 85%.
Regarding `O=C(/C=C/CN1CCC[C@@H](Oc2ccc(/C(=C(/CC(F)(F)F)c3ccccc3)c3ccc4[nH]nc(F)c4c3)cn2)C1)N1CCNCC1` [Example 18, (E)-1-(Piperazin-1-yl)-4-((R)-3-((5-((Z)-4,4,4-trifluoro-1-(3-fluoro-1H-indazol-5-yl)-2-phenylbut-1-en-1-yl)pyridin-2-yl)oxy)piperidin-1-yl)but-2-en-1-one], the IC50 in test [1] was 6 nM; with MCF7 ERαY537S, 8 nM; with MCF7 D538G, 5 nM; in the test on MCF7 cell, 1 nM. Besides, the Emax turned out to be 92% in the test with MCF7 ERαY537S, 104% in the test on MCF7 D538G and 100% with MCF7 cell. Also, in test [2], the “Covalent modification effect on the estrogen receptor ERα Y537S mutant-type” value was 99%. For the same compound, the “Covalent modification effect on the estrogen receptor ERα wild-type” value in test [3] came to 98%.
As to `CN(C)C(=O)/C=C/CN1CCC[C@@H](Oc2ccc(/C(=C(/CC(F)(F)F)c3ccc(F)cc3)c3ccc4[nH]nc(F)c4c3)cn2)C1` [Example 19, (E)-N,N-Dimethyl-4-((R)-3-((5-((Z)-4,4,4-trifluoro-1-(3-fluoro-1H-indazol-5-yl)-2-(4-fluorophenyl)but-1-en-1-yl)pyridin-2-yl)oxy)piperidin-1-yl)but-2-enamide], the IC50 came to 4 nM in test [1], 2 nM in the test with MCF7 ERαY537S, 2 nM in the test on MCF7 D538G and 0.4 nM in the test on MCF7 cell. The Emax in the test on MCF7 ERαY537S was 106%; in the test on MCF7 D538G, 97%; in the test on MCF7 cell, 97%. Besides, the “Covalent modification effect on the estrogen receptor ERα Y537S mutant-type” value in test [2] turned out to be 97%. The “Covalent modification effect on the estrogen receptor ERα wild-type” value in test [3] was 94%.
As to `CN(C)C(=O)/C=C/CN[C@H]1CCN(c2ccc(/C(=C(/CC(F)(F)F)c3ccccc3)c3ccc4[nH]nc(F)c4c3)cn2)C1` [Example 35, (E)-N,N-Dimethyl-4-(((S)-1-(5-((Z)-4,4,4-trifluoro-1-(3-fluoro-1H-indazol-5-yl)-2-phenylbut-1-en-1-yl)pyridin-2-yl)pyrrolidin-3-yl)amino)but-2-enamide], the IC50 in test [1] amounted to 4 nM; in the test with MCF7 ERαY537S, 6 nM; with MCF7 D538G, 3 nM; in the test with MCF7 cell, 1.1 nM. Further, the Emax came to 97% in the test with MCF7 ERαY537S, 104% with MCF7 D538G and 105% with MCF7 cell.
On to `CN(C)C(=O)/C=C/CNC1CCN(c2ccc(/C(=C(/CC(F)(F)F)c3ccccc3)c3ccc4[nH]nc(F)c4c3)cn2)CC1` [Example 36, (E)-N,N-Dimethyl-4-((1-(5-((Z)-4,4,4-trifluoro-1-(3-fluoro-1H-indazol-5-yl)-2-phenylbut-1-en-1-yl)pyridin-2-yl)piperidin-4-yl)amino)but-2-enamide], for which the IC50 in test [1] worked out at 5 nM; in the test on MCF7 ERαY537S it was 3 nM; in the test on MCF7 D538G it was 2 nM; in the test on MCF7 cell it was 0.5 nM. Further, the Emax in the test with MCF7 ERαY537S amounted to 100%; with MCF7 D538G it was 99%; with MCF7 cell, 104%.
As to `CN(C)C(=O)/C=C/CN(C)[C@H]1CCCN(c2ccc(/C(=C(/CC(F)(F)F)c3ccccc3)c3ccc4[nH]nc(F)c4c3)cn2)C1` [Example 37, (E)-N,N-Dimethyl-4-(methyl((S)-1-(5-((Z)-4,4,4-trifluoro-1-(3-fluoro-1H-indazol-5-yl)-2-phenylbut-1-en-1-yl)pyridin-2-yl)piperidin-3-yl)amino)but-2-enamide], the IC50 was 8 nM in test [1], 3 nM in the test with MCF7 ERαY537S, 2 nM with MCF7 D538G and 0.8 nM in the test on MCF7 cell. Further, the figures for the Emax in the test with MCF7 ERαY537S, in the test with MCF7 D538G and in the test on MCF7 cell were 86%, 101% and 98%, respectively.
